Experimental data as given in ChEMBL document CHEMBL3525901 (Drug Metab Dispos, 2012).
Blank lines part the entries; values can stand above or below the compound they belong to.

Key:
Assay type in all cases: ADME, organism-based
[1] = tested on: Plasma; experiment: Unbound Cmax in Wistar rat plasma at 10 mg/kg, sc by HPLC-MS/MS analysis; design: dose 10 mg/kg, route subcutaneous; conditions: in vivo
[2] = tested on: Plasma; experiment: Unbound AUC (0 to infinity) in Wistar rat plasma at 10 mg/kg, sc by HPLC-MS/MS analysis; design: dose 10 mg/kg, route subcutaneous; conditions: in vivo
[3] = Unbound Tmax in Wistar rat plasma at 10 mg/kg, sc by HPLC-MS/MS analysis; design: dose 10 mg/kg, route subcutaneous; conditions: read-out: fTmax (converted)
[4] = Ratio of steady state drug level in extracellular fluid to unbound drug level in plasma of Wistar rat at 10 mg/kg, sc by HPLC-MS/MS analysis; design: dose 10 mg/kg, route subcutaneous
[5] = Cmax in Wistar rat extracellular fluid at 10 mg/kg, sc by HPLC-MS/MS analysis; design: dose 10 mg/kg, route subcutaneous
[6] = AUC (0 to infinity) in rat; design: time infinity; conditions: plasma
[7] = Tmax in Wistar rat extracellular fluid at 10 mg/kg, sc by HPLC-MS/MS analysis; design: dose 10 mg/kg, route subcutaneous
[8] = Ratio of unbound AUC in extracellular fluid to unbound AUC in plasma of Wistar rat at 10 mg/kg, sc by HPLC-MS/MS analysis; design: dose 10 mg/kg, route subcutaneous; conditions: read-out: Ratio AUC
[9] = Fraction unbound in Wistar rat plasma at 10 mg/kg, sc by HPLC-MS/MS analysis; design: dose 10 mg/kg, route subcutaneous
[10] = AUC (0 to infinity) in Wistar rat extracellular fluid at 10 mg/kg, sc by HPLC-MS/MS analysis; design: time infinity, dose 10 mg/kg, route subcutaneous
[11] = tested on: Brain; experiment: Unbound volume of distribution in Wistar rat brain at 10 mg/kg, sc by HPLC-MS/MS analysis; design: dose 10 mg/kg, route subcutaneous; conditions: in vivo
[12] = Tmax in Wistar rat extracellular fluid at […], sc by HPLC-MS/MS analysis; design: dose 1.6 mg/kg, route subcutaneous
[13] = Systemic clearance in Wistar rat extracellular fluid at […], sc by HPLC-MS/MS analysis; design: dose 1.6 mg/kg, route subcutaneous
[14] = tested on: Rattus norvegicus; experiment: Central volume of distribution in Wistar rat extracellular fluid at […], sc by HPLC-MS/MS analysis; design: dose 1.6 mg/kg, route subcutaneous; conditions: in vivo
[15] = Cmax in Wistar rat extracellular fluid at […], sc by HPLC-MS/MS analysis; design: dose 1.6 mg/kg, route subcutaneous
[16] = tested on: Brain; experiment: Unbound volume of distribution in Wistar rat brain at […], sc by HPLC-MS/MS analysis; design: dose 1.6 mg/kg, route subcutaneous; conditions: in vivo
[17] = Ratio of steady state drug level in extracellular fluid to unbound drug level in plasma of Wistar rat at […], sc by HPLC-MS/MS analysis; design: dose 1.6 mg/kg, route subcutaneous
[18] = Ratio of unbound AUC in extracellular fluid to unbound AUC in plasma of Wistar rat at […], sc by HPLC-MS/MS analysis; design: dose 1.6 mg/kg, route subcutaneous; conditions: read-out: Ratio AUC
[19] = Unbound Tmax in Wistar rat plasma at […], sc by HPLC-MS/MS analysis; design: dose 1.6 mg/kg, route subcutaneous; conditions: read-out: fTmax (converted)
[20] = Fraction unbound in Wistar rat plasma at […], sc by HPLC-MS/MS analysis; design: dose 1.6 mg/kg, route subcutaneous
[21] = tested on: Plasma; experiment: Unbound Cmax in Wistar rat plasma at […], sc by HPLC-MS/MS analysis; design: dose 1.6 mg/kg, route subcutaneous; conditions: in vivo
[22] = tested on: Plasma; experiment: Unbound AUC (0 to infinity) in Wistar rat plasma at […], sc by HPLC-MS/MS analysis; design: dose 1.6 mg/kg, route subcutaneous; conditions: in vivo
[23] = Equilibration rate constant in Wistar rat brain extracellular fluid at […], sc by HPLC-MS/MS analysis; design: dose 1.6 mg/kg, route subcutaneous; conditions: in vivo
[24] = tested on: Rattus norvegicus; experiment: Absorption rate constant in Wistar rat extracellular fluid at […], sc by HPLC-MS/MS analysis; design: dose 1.6 mg/kg, route subcutaneous; conditions: in vivo
[25] = AUC (0 to infinity) in Wistar rat extracellular fluid at […], sc by HPLC-MS/MS analysis; design: dose 1.6 mg/kg, route subcutaneous, time infinity
[26] = Ratio of uptake clearance to efflux clearance in Wistar rat brain extracellular fluid at […], sc by HPLC-MS/MS analysis; design: dose 1.6 mg/kg, route subcutaneous; conditions: in vivo
[27] = Systemic clearance in Wistar rat extracellular fluid at 10 mg/kg, sc by HPLC-MS/MS analysis; design: dose 10 mg/kg, route subcutaneous
[28] = Equilibration rate constant in Wistar rat brain extracellular fluid at 10 mg/kg, sc by HPLC-MS/MS analysis; design: dose 10 mg/kg, route subcutaneous; conditions: in vivo
[29] = tested on: Rattus norvegicus; experiment: Absorption rate constant in Wistar rat extracellular fluid at 10 mg/kg, sc by HPLC-MS/MS analysis; design: dose 10 mg/kg, route subcutaneous; conditions: in vivo
[30] = Ratio of uptake clearance to efflux clearance in Wistar rat brain extracellular fluid at 10 mg/kg, sc by HPLC-MS/MS analysis; design: dose 10 mg/kg, route subcutaneous; conditions: in vivo
[31] = tested on: Rattus norvegicus; experiment: Central volume of distribution in Wistar rat extracellular fluid at 10 mg/kg, sc by HPLC-MS/MS analysis; design: dose 10 mg/kg, route subcutaneous; conditions: in vivo
[32] = Unbound Tmax in Wistar rat plasma at 3 mg/kg, sc by HPLC-MS/MS analysis; design: dose 3 mg/kg, route subcutaneous; conditions: read-out: fTmax (converted)
[33] = Fraction unbound in Wistar rat plasma at 3 mg/kg, sc by HPLC-MS/MS analysis; design: dose 3 mg/kg, route subcutaneous
[34] = tested on: Brain; experiment: Unbound volume of distribution in Wistar rat brain at 3 mg/kg, sc by HPLC-MS/MS analysis; design: dose 3 mg/kg, route subcutaneous; conditions: in vivo
[35] = AUC (0 to infinity) in Wistar rat extracellular fluid at 3 mg/kg, sc by HPLC-MS/MS analysis; design: time infinity, dose 3 mg/kg, route subcutaneous
[36] = tested on: Plasma; experiment: Unbound AUC (0 to infinity) in Wistar rat plasma at 3 mg/kg, sc by HPLC-MS/MS analysis; design: dose 3 mg/kg, route subcutaneous; conditions: in vivo
[37] = tested on: Rattus norvegicus; experiment: Central volume of distribution in Wistar rat extracellular fluid at 3 mg/kg, sc by HPLC-MS/MS analysis; design: dose 3 mg/kg, route subcutaneous; conditions: in vivo
[38] = Cmax in Wistar rat extracellular fluid at 3 mg/kg, sc by HPLC-MS/MS analysis; design: dose 3 mg/kg, route subcutaneous
[39] = Systemic clearance in Wistar rat extracellular fluid at 3 mg/kg, sc by HPLC-MS/MS analysis; design: dose 3 mg/kg, route subcutaneous
[40] = Ratio of steady state drug level in extracellular fluid to unbound drug level in plasma of Wistar rat at 3 mg/kg, sc by HPLC-MS/MS analysis; design: dose 3 mg/kg, route subcutaneous
[41] = tested on: Rattus norvegicus; experiment: Absorption rate constant in Wistar rat extracellular fluid at 3 mg/kg, sc by HPLC-MS/MS analysis; design: dose 3 mg/kg, route subcutaneous; conditions: in vivo
[42] = Tmax in Wistar rat extracellular fluid at 3 mg/kg, sc by HPLC-MS/MS analysis; design: dose 3 mg/kg, route subcutaneous
[43] = tested on: Plasma; experiment: Unbound Cmax in Wistar rat plasma at 3 mg/kg, sc by HPLC-MS/MS analysis; design: dose 3 mg/kg, route subcutaneous; conditions: in vivo
[44] = Ratio of uptake clearance to efflux clearance in Wistar rat brain extracellular fluid at 3 mg/kg, sc by HPLC-MS/MS analysis; design: dose 3 mg/kg, route subcutaneous; conditions: in vivo
[45] = Ratio of unbound AUC in extracellular fluid to unbound AUC in plasma of Wistar rat at 3 mg/kg, sc by HPLC-MS/MS analysis; design: dose 3 mg/kg, route subcutaneous; conditions: read-out: Ratio AUC
[46] = Equilibration rate constant in Wistar rat brain extracellular fluid at 3 mg/kg, sc by HPLC-MS/MS analysis; design: dose 3 mg/kg, route subcutaneous; conditions: in vivo

SMILES: CN1CCN(C2=Nc3cc(Cl)ccc3Nc3ccccc32)CC1 [CLOZAPINE]
fCmax [1]: 77 nM | fAUC [2]: 19732 nM·min | Tmax [3]: 1 h | Kp uu [4]: 0.13 | Cmax [5]: 0.006 µM | AUC(0-inf) [6]: 5390 nM·h | Tmax [7]: 4 h | Kp uu [8]: 0.15 | fraction unbound [9]: 0.061 | AUC(0-inf) [10]: 44.3 nM·h | Vdu [11]: 70 mL/g

Tmax [12]: 2 h | CL/F [13]: 16.6 L/h/kg | Vd [14]: 4.1 L/kg | Cmax [15]: 0.062 µM | Vdu [16]: 18 mL/g | Kp uu [17]: 1.06 | Kp uu [18]: 0.86 | Tmax [19]: 0.433 h | fraction unbound [20]: 0.5 | fCmax [21]: 131 nM | fAUC [22]: 13888 nM·min | Ke [23]: 0.015 min⁻¹ | ka [24]: 0.02 min⁻¹ | AUC(0-inf) [25]: 197 nM·h | Ratio [26]: 1.24
SMILES: CN(C)CCC[C@@]1(c2ccc(F)cc2)OCc2cc(C#N)ccc21 [ESCITALOPRAM]

fCmax [1]: 90 nM | fAUC [2]: 32296 nM·min | Tmax [3]: 1.05 h | Kp uu [4]: 0.04 | CL/F [27]: 95.8 L/h/kg | Cmax [5]: 0.002 µM | Ke [28]: 0.006 min⁻¹ | ka [29]: 0.5 min⁻¹ | Ratio [30]: 0.05 | Tmax [7]: 4.63 h | Vd [31]: 607 L/kg | Kp uu [8]: 0.03 | fraction unbound [9]: 0.11 | AUC(0-inf) [10]: 13.4 nM·h | Vdu [11]: 82 mL/g
SMILES: Clc1ccc2c(c1)N=C(N1CCNCC1)c1ccccc1N2 [N-DESMETHYLCLOZAPINE]

SMILES: Cc1nc2n(c(=O)c1CCN1CCC(c3noc4cc(F)ccc34)CC1)CCCC2 [RISPERIDONE]
Tmax [32]: 0.883 h | fraction unbound [33]: 0.16 | Vdu [34]: 10 mL/g | AUC(0-inf) [35]: 59.1 nM·h | fAUC [36]: 24022 nM·min | Vd [37]: 21 L/kg | Cmax [38]: 0.02 µM | CL/F [39]: 18.4 L/h/kg | Kp uu [40]: 0.21 | ka [41]: 0.03 min⁻¹ | Tmax [42]: 1.25 h | fCmax [43]: 181 nM | Ratio [44]: 0.14 | Kp uu [45]: 0.15 | Ke [46]: 0.006 min⁻¹
